# From patent US20250034116A1, “1,4-DIHETEROCYCLIC SUBSTITUTED AROMATIC RING OR AROMATIC HETEROCYCLIC COMPOUND AND USE THEREOF” (BeBetter Med Inc., priority 2022, published 2025)
# Experiments:
# [1] = tested on: CYP enzymes in human liver microsomes (HLM); assay: Inhibition of 20-HETE production in human liver microsomes (HLM); assay type: biochemical
# Experimental: (§1) Experimental principle: The inhibitory activity of 20-HETE production is evaluated by testing the inhibitory effects of the compound on human liver microsomes (HLM), rat liver microsomes (RLM), mouse liver microsomes (MLM), or […] CYP4 subtype enzymes (CYP4F2). This assay employs HLM, RLM, or MLM along with recombinant CYP4F2 (rCYP4F2) and recombinant CYP4A11 (rCYP4A11), which are […] CYP4 subtype enzymes, to detect the effects of the test compound at different concentrations on the metabolic rate of enzyme-specific substrates, to determine the inhibitory effects of the test compound on CYP enzymes in HLM, RLM, or MLM.
# (§2) Experimental methods: Dissolve the test compound in DMSO, and subsequently dilute it with an acetonitrile and DMSO mixture (3:1). Add 2 μl of varying concentrations of the test compound and 100 μl of potassium phosphate buffer containing either liver microsomes or recombinant enzymes to a 96-well plate. After mixing well, transfer 30 μl to another well (in duplicate), add 15 μl of 400 μM substrate solution, and mix well again. Preheat at 37° C. for 10 minutes, and then add 15 μl of 6 mM NADPH and incubate at 37° C. for 25 minutes. After 25 minutes, add 160 μl of acetonitrile solution (containing 0.1 μg/ml internal standard) to stop the reaction. Mix well, centrifuge at 3500 g for 15 minutes, and then analyze the supernatant using LC-MS/MS.
# (§3) Plot the compound concentration on the x-axis and the inhibition rate on the y-axis to draw the curve. Use GraphPad Prism 5 software to fit the curve and calculate the IC50. The formula is Y=Bottom+(Top−Bottom)/(1+10^((Log IC50−X)×HillSlope)). X represents the logarithmic concentration of the inhibitor, and Y represents the relative enzyme activity at a given inhibitor concentration (relative to the condition without the inhibitor).
# (§4) Calculate the inhibition percentages at concentrations of 1000 nM, 500 nM, or 100 nM as well as the half-maximal inhibitory concentration (IC50) of the test compound from the above experiment.
# [2] = tested on: CYP enzymes in rat liver microsomes (RLM); assay: Inhibition of 20-HETE production in rat liver microsomes (RLM); assay type: biochemical
# Experimental: as §1, §2, §3, §4
smiles,measurement,setting,value
"O=C(C1CCCCC1O)N1CCC(c2ccc(-c3cn[nH]c3)cc2F)CC1 (single isomer, unassigned) [Compound 149a, (4-(2-fluoro-4-(1H-pyrazol-4-yl)phenyl)piperidin-1-yl)(2-hydroxycyclohexyl) methanone]",HLM (% inh @ 100 nM),[1],84.74%
"O=C1CCCN1CC1CCN(c2cc(F)c(-c3cn[nH]c3)cc2F)CC1 [Compound 6, 1-((1-(2,5-difluoro-4-(1H-pyrazol-4-yl)phenyl)piperidin-4-yl)methyl)pyrrolidin-2-one]",HLM (% inh @ 500 nM),[1],67.30%
same,RLM (% inh @ 500 nM),[2],23.02%
"O=C1CCCN1CC1CCN(c2ccc(-c3cn[nH]c3)cc2C(F)(F)F)CC1 [Compound 10, 1-((1-(4-(1H-pyrazol-4-yl)-2-(trifluoromethyl)phenyl)piperidin-4-yl)methyl)pyrrolidin-2-one]",IC50,[1],46.1 nM
same,IC50,[2],542 nM
"Cc1cc(-c2cn[nH]c2)ccc1N1CCC(CN2CCCC2=O)CC1 [Compound 12, 1-((1-(2-methyl-4-(1H-pyrazol-4-yl)phenyl)piperidin-4-yl)methyl)pyrrolidin-2-one]",HLM (% inh @ 500 nM),[1],76.91%
same,RLM (% inh @ 500 nM),[2],17.99%
"N#Cc1cc(-c2cn[nH]c2)ccc1N1CCC(CN2CCCC2=O)CC1 [Compound 13, 2-(4-((2-oxopyrrolidin-1-yl)methyl)piperidin-1-yl)-5-(1H-pyrazol-4-yl)benzonitrile]",HLM (% inh @ 500 nM),[1],58.98%
same,RLM (% inh @ 500 nM),[2],−4.72%
"COc1cc(-c2cn[nH]c2)ccc1N1CCC(CN2CCCC2=O)CC1 [Compound 14, 1-((1-(2-methoxy-4-(1H-pyrazol-4-yl)phenyl)piperidin-4-yl)methyl)pyrrolidin-2-one]",HLM (% inh @ 500 nM),[1],41.24%
"O=Cc1cc(-c2cn[nH]c2)ccc1N1CCC(CN2CCCC2=O)CC1 [Compound 15, 2-(4-((2-oxopyrrolidin-1-yl)methyl)piperidin-1-yl)-5-(1H-pyrazol-4-yl)benzaldehyde]",HLM (% inh @ 500 nM),[1],64.22%
same,RLM (% inh @ 500 nM),[2],12.62%
"NC(=O)c1cc(-c2cn[nH]c2)ccc1N1CCC(CN2CCCC2=O)CC1 [Compound 16, 2-(4-((2-oxopyrrolidin-1-yl)methyl)piperidin-1-yl)-5-(1H-pyrazol-4-yl)benzamide]",HLM (% inh @ 500 nM),[1],41.22%
"O=C1CCCN1CC1CCN(c2ccc(-c3cn[nH]c3)cc2CO)CC1 [Compound 17, 1-((1-(2-(hydroxymethyl)-4-(1H-pyrazol-4-yl)phenyl)piperidin-4-yl)methyl)pyrrolidin-2-one]",HLM (% inh @ 500 nM),[1],65.27%
same,RLM (% inh @ 500 nM),[2],17.66%
"COC(=O)c1cc(-c2cn[nH]c2)ccc1N1CCC(CN2CCCC2=O)CC1 [Compound 18, methyl 2-(4-((2-oxopyrrolidin-1-yl)methyl)piperidin-1-yl)-5-(1H-pyrazol-4-yl)benzoate]",HLM (% inh @ 500 nM),[1],47.87%
same,RLM (% inh @ 500 nM),[2],8.61%
"CN(C)c1cc(-c2cn[nH]c2)ccc1N1CCC(CN2CCCC2=O)CC1 [Compound 20, 1-((1-(2-(dimethylamino)-4-(1H-pyrazol-4-yl)phenyl)piperidin-4-yl)methyl)pyrrolidin-2-one]",HLM (% inh @ 500 nM),[1],36.16%
"O=C1CCCN1CC1CCN(c2ccc(-c3cn[nH]c3)cn2)CC1 [Compound 21, 1-((1-(5-(1H-pyrazol-4-yl)pyridin-2-yl)piperidin-4-yl)methyl)pyrrolidin-2-one]",HLM (% inh @ 500 nM),[1],40.01%
"O=C1CCCN1CC1CCN(c2ccc(-c3cn[nH]c3)nc2)CC1 [Compound 22, 1-((1-(6-(1H-pyrazol-4-yl)pyridin-3-yl)piperidin-4-yl)methyl)pyrrolidin-2-one]",HLM (% inh @ 500 nM),[1],53.10%
same,RLM (% inh @ 500 nM),[2],34.61%
"O=C1CCCN1CC1CCN(c2ncc(-c3cn[nH]c3)cn2)CC1 [Compound 23, 1-((1-(5-(1H-pyrazol-4-yl)pyrimidin-2-yl)piperidin-4-yl)methyl)pyrrolidine-2-one]",HLM (% inh @ 500 nM),[1],−24.84%
"O=C1CCC(=O)N1CC1CCN(c2ccc(-c3cn[nH]c3)cc2)CC1 [Compound 28, 1-((1-(4-(1H-pyrazol-4-yl)phenyl)piperidin-4-yl)methyl)pyrrolidine-2,5-dione]",HLM (% inh @ 500 nM),[1],55.98%
same,RLM (% inh @ 500 nM),[2],16.98%
"O=C1N(CC2CCN(c3ccc(-c4cn[nH]c4)cc3)CC2)CCC12CCCCC2 [Compound 31, 2-((1-(4-(1H-pyrazol-4-yl)phenyl)piperidin-4-yl)methyl)-2-azaspiro[4.5]decan-1-one]",HLM (% inh @ 500 nM),[1],68.02%
same,RLM (% inh @ 500 nM),[2],14.73%
"O=C1C2CCC(C2)N1CC1CCN(c2ccc(-c3cn[nH]c3)cc2)CC1 (stereo not drawn) [Compound 33, 2-((1-(4-(1H-pyrazol-4-yl)phenyl)piperidin-4-yl)methyl)-2-azabicyclo[2.2.1]heptan-3-one]",HLM (% inh @ 500 nM),[1],61.47%
same,RLM (% inh @ 500 nM),[2],8.80%
"O=C1CCCN1CC1CCN(c2ccc(-c3cnoc3)c(F)c2F)CC1 [Compound 37, 1-((1-(2,3-difluoro-4-(isoxazol-4-yl)phenyl)piperidin-4-yl)methyl)pyrrolidin-2-one]",HLM (% inh @ 500 nM),[1],82.89%
same,RLM (% inh @ 500 nM),[2],59.01%
"c1cc(N2CCC(CN3CCCC3)CC2)ccc1-c1cn[nH]c1 [Compound 40, 1-(4-(1H-pyrazol-4-yl)phenyl)-4-(pyrrolidin-1-ylmethyl)piperidine]",HLM (% inh @ 500 nM),[1],52.40%
same,RLM (% inh @ 500 nM),[2],26.22%
"Clc1ccc(CC2CCN(c3ccc(-c4cn[nH]c4)cc3)CC2)cc1 [Compound 41, 1-(4-(1H-pyrazol-4-yl)phenyl)-4-(4-chlorobenzyl)piperidine]",HLM (% inh @ 500 nM),[1],57.77%
same,RLM (% inh @ 500 nM),[2],15.76%
"O=C1c2ccccc2CCN1CC1CCN(c2ccc(-c3cn[nH]c3)cc2)CC1 [Compound 42, 2-((1-(4-(1H-pyrazol-4-yl)phenyl)piperidin-4-yl)methyl)-3,4-dihydroisoquinolin-1(2H)-one]",IC50,[1],32.8 nM
same,IC50,[2],605 nM
same,RLM (% inh @ 500 nM),[2],25.96%
"O=C(C1CCN(c2ccc(-c3cn[nH]c3)cc2)CC1)N1CCNCC1 [Compound 51, (1-(4-(1H-pyrazol-4-yl)phenyl)piperidin-4-yl)(piperazin-1-yl) methanone]",HLM (% inh @ 500 nM),[1],30.17%
"O=C1CCCN1Cc1ccc2c(c1)CN(c1ccc(-c3cn[nH]c3)cc1)C2 [Compound 126, 1-(2-(4-(1H-pyrazol-4-yl)phenyl)isoindolin-5-ylmethyl)pyrrolidin-2-one]",HLM (% inh @ 500 nM),[1],64.15%
"O=C(N1CCN(c2ccc(-c3cn[nH]c3)cc2F)CC1)N1CC2CCCC2C1 (stereo not drawn) [Compound 133, (4-(2-fluoro-4-(1H-pyrazol-4-yl)phenyl)piperazin-1-yl)(hexahydrocyclopenta[c]pyrrol-2 (1H)-yl) methanone]",HLM (% inh @ 100 nM),[1],87.90%
"O=S(=O)(c1ccc(F)cc1)N1CCN(c2ccc(-c3cn[nH]c3)cc2F)CC1 [Compound 134, 1-(2-fluoro-4-(1H-pyrazol-4-yl)phenyl)-4-((4-fluorophenyl)sulfonyl)piperazine]",IC50,[1],21.9 nM
"O=C(N1CCC(c2ccc(-c3cn[nH]c3)cc2)CC1)C1(O)CCCCC1 [Compound 139, (4-(4-(1H-pyrazol-4-yl)phenyl)piperidin-1-yl)(1-hydroxycyclohexyl) methanone]",HLM (% inh @ 100 nM),[1],88.13%
"O=C(C1CCCC(O)C1)N1CCC(c2ccc(-c3cn[nH]c3)cc2F)CC1 (stereo not drawn) [Compound 148, (4-(2-fluoro-4-(1H-pyrazol-4-yl)phenyl)piperidin-1-yl)(3-hydroxycyclohexyl) methanone]",HLM (% inh @ 100 nM),[1],85.60%
"CC(C)(O)CC(=O)N1CCC(c2ccc(-c3cn[nH]c3)cc2F)CC1 [Compound 151, 1-(4-(2-fluoro-4-(1H-pyrazol-4-yl)phenyl)piperidin-1-yl)-3-hydroxy-3-methylbutan-1-one]",HLM (% inh @ 100 nM),[1],82.28%
"O=C(C1CCN(c2ccc(-c3cn[nH]c3)cc2F)CC1)N1Cc2ccccc2C1 [Compound 156, (1-(2-fluoro-4-(1H-pyrazol-4-yl)phenyl)piperidin-4-yl)(isoindolin-2-yl) methanone]",IC50,[1],26.2 nM
"O=C(C1CCN(c2ccc(-c3cn[nH]c3)cc2)CC1)N1Cc2cccnc2C1 [Compound 157, (1-(4-(1H-pyrazol-4-yl)phenyl)piperidin-4-yl)(5,7-dihydro-6H-pyrrolo[3,4-b]pyridin-6-yl) methanone]",IC50,[1],17.6 nM
"N#Cc1ccc2c(c1)CN(C(=O)C1CCN(c3ccc(-c4cn[nH]c4)cc3)CC1)C2 [Compound 158, 2-(1-(4-(1H-pyrazol-4-yl)phenyl)piperidine-4-carbonyl) isoindoline-5-carbonitrile]",IC50,[1],11.7 nM
"O=C1C2CCCC2CN1CC1CCN(c2ccc(-c3cn[nH]c3)cc2F)CC1 (stereo not drawn) [Compound 160, 2-((1-(2-fluoro-4-(1H-pyrazol-4-yl)phenyl)piperidin-4-yl)methyl) hexahydrocyclopenta[c]pyrrol-1(2H)-one]",IC50,[1],23.2 nM
